These are literature values, as cited in patent US4039549A, “Olefinic derivatives of amino acids” (Merrell Toraude et Compagnie, priority 1976, dated 1977).

Data set [1] deals with brain levels of γ-aminobutyric acid. The following applies: reversible effect; literature.
The test system of data set [2] is γ-aminobutyric acid transaminase. The note with it: literature.

Take `CCCC(CCC)C(=O)O` [n-dipropylacetate]: the “duration of effect (elevation of brain γ-aminobutyric acid levels)” value in data set [1] is recorded as “about 2 hours”. The “inhibition of γ-aminobutyric acid transaminase (mode)” value in data set [2] was “competitively inhibiting”.
With `NCC#CC(=O)O` [4-aminotetrolic acid], the “inhibition of γ-aminobutyric acid transaminase (mode)” value in data set [2] is recorded as “competitive reversible inhibitor”.
